Values quoted from earlier work, collected in PubChem BioAssay AID1259409 (Chemical Carcinogenesis Research Information System (CCRIS), 2018).

Tested on: rodent chemically induced tumor inhibition, incidence and multiplicity
Assay: CCRIS tumor inhibitor studies
Conditions: Carcinogen: DIETHYLNITROSAMINE, 55-18-5, 684-93-5, N-BUTYL-N-(4-HYDROXYBUTYL)NITROSAMINE, 3817-11-6, Carcinogen: DIETHYLNITROSAMINE, 55-18-5, 684-93-5, N-BUTYL-N-(4-HYDROXYBUTYL)NITROSAMINE, 3817-11-6, Dose [Inhibitor]: 0, Route [Inhibitor]: ORAL, Species: RAT

In the case of `CCCCCCCCCCCCC(=O)COC1=C(O)C(=O)O[C@@H]1[C@@H](O)CO`, the “tumour outcome (control, treated, inhibition, significance)” value (N-METHYL-N-NITROSOUREA, DIMETHY, N-METHYL-N-NITROSOUREA, DIMETHY, 1% IN THE DIET FOR 24 WK BEGINNING 1 DAY POST CARCINOGEN TREATMENT (STUDY DURATION: 28 WK), Strain/Sex: F344/MALE, Target Tissue: Type of Lesion: URINARY BLADDER: PAPILLOMA, Dose [Carcinogen]: 100 MG/KG BW DEN ONCE FOLLOWED BY 20 MG/KG BW MNU 4 TIMES AND 0.05% BBN IN DRINKING WATER DURING FIRST 2 WK THEN 40 MG/K, Promoter: NONE USED) is listed as 7%, 0%, 100%, not significant, the “tumour outcome (control, treated, inhibition, significance)” value (N-METHYL-N-NITROSOUREA, DIMETHY, N-METHYL-N-NITROSOUREA, DIMETHY, 1% IN THE DIET FOR 30 D BEGINNING 1 D PRIOR TO CARCINOGEN TREATMENT (STUDY DURATION: 28 WK), Strain/Sex: F344/MALE, Target Tissue: Type of Lesion: THYROID: CARCINOMA, Dose [Carcinogen]: 100 MG/KG BW DEN ONCE FOLLOWED BY 20 MG/KG BW MNU 4 TIMES AND 0.05% BBN IN DRINKING WATER DURING FIRST 2 WK THEN 40 MG/K, Promoter: NONE USED) is listed as 7%, 0%, 100%, not significant and the “tumour outcome (control, treated, inhibition, significance)” value (N-METHYL-N-NITROSOUREA, DIMETHY, N-METHYL-N-NITROSOUREA, DIMETHY, 1% IN THE DIET FOR 30 D BEGINNING 1 DAY PRIOR TO CARCINOGEN TREATMENT (STUDY DURATION: 28 WK), Strain/Sex: F344/ MALE, Target Tissue: Type of Lesion: URINARY BLADDER: PAPILLOMA, Dose [Carcinogen]: 100 MG/KG BW DEN ONCE FOLLOWED BY 20 MG/KG BW MNU 4 TIMES AND 0.05% BBN IN DRINKING WATER DURING FIRST 2 WK THEN 40 MG/K, Promoter: NONE USED) is listed as 7%, 0%, 100%, not significant. For the same compound, the “tumour outcome (control, treated, inhibition, significance)” value (N-METHYL-N-NITROSOUREA, DIMETHY, N-METHYL-N-NITROSOUREA, DIMETHY, 1% IN THE DIET FOR 30 D BEGINNING 1 DAY PRIOR TO CARCINOGEN TREATMENT (STUDY DURATION: 28 WK), Strain/Sex: F344/MALE, Target Tissue: Type of Lesion: LARGE INTESTINE: CARCINOMA, Dose [Carcinogen]: 100 MG/KG BW DEN ONCE FOLLOWED BY 20 MG/KG BW MNU 4 TIMES AND 0.05% BBN IN DRINKING WATER DURING FIRST 2 WK THEN 40 MG/K, Promoter: NONE USED) was 7%, 7%, 0%, not significant, the “tumour outcome (control, treated, inhibition, significance)” value (N-METHYL-N-NITROSOUREA, DIMETHY, N-METHYL-N-NITROSOUREA, DIMETHY, 1% IN THE DIET FOR 30 D BEGINNING 1 DAY PRIOR TO CARCINOGEN TREATMENT (STUDY DURATION: 28 WK), Strain/Sex: F344/MALE, Target Tissue: Type of Lesion: SMALL INTESTINE: ADENOMA, Dose [Carcinogen]: 100 MG/KG BW DEN ONCE FOLLOWED BY 20 MG/KG BW MNU 4 TIMES AND 0.05% BBN IN DRINKING WATER DURING FIRST 2 WK THEN 40 MG/K, Promoter: NONE USED) was 33%, 21%, 36%, not significant and the “tumour outcome (control, treated, inhibition, significance)” value (N-METHYL-N-NITROSOUREA, DIMETHY, N-METHYL-N-NITROSOUREA, DIMETHY, 1% IN THE DIET FOR 30 DAYS BEGINNING 1 D PRIOR TO CARCINOGEN TREATMENT (STUDY DURATION: 28 WK), Strain/Sex: F344/MALE, Target Tissue: Type of Lesion: SMALL INTESTINE: CARCINOMA, Dose [Carcinogen]: 100 MG/KG BW DEN ONCE FOLLOWED BY 20 MG/KG BW MNU 4 TIMES AND 0.05% BBN IN DRINKING WATER DURING FIRST 2 WK THEN 40 MG/K, Promoter: NONE USED) was 7%, 14%, -100%, not significant. The “tumour outcome (control, treated, inhibition, significance)” value (N-METHYL-N-NITROSOUREA, DIMETHY, N-METHYL-N-NITROSOUREA, DIMETHY, 1% IN THE DIET FOR 30 DAYS BEGINNING 1 DAY PRIOR TO CARCINOGEN TREATMENT (STUDY DURATION: 28 WK), Strain/Sex: F344/MALE, Target Tissue: Type of Lesion: URINARY BLADDER: CARCINOMA) was 7%, 0%, 100%, not significant and the “tumour outcome (control, treated, inhibition, significance)” value (N-METHYL-NITROSOUREA, DIMETHYLH, N-METHYL-NITROSOUREA, DIMETHYLH, 1% IN THE DIET FOR 30 DAYS BEGINNING 1 DAY PRIOR TO CARCINOGEN TREATMENT (STUDY DURATION: 28 WK), Strain/Sex: F344/MALE, Target Tissue: Type of Lesion: LARGE INTESTINE: ADENOMA, Dose [Carcinogen]: 100 MG/KG BW DEN ONCE FOLLOWED BY 20 MG/KG BW MNU 4 TIMES AND 0.05% BBN IN DRINKING WATER DURING FIRST 2 WK THEN 40 MG/K, Promoter: NONE USED) was 27%, 29%, -7%, not significant.
